We go through 1 compound from patent US20240277767A1, “METHODS AND USES” (PROLEUKOCYTE AB, priority 2021, published 2024).

Data set [1] relates to NK cells. Nature of the data set: Intracellular ROS levels in NK cells (CellROX, flow cytometry). In kind it is cell-based, human. As for the experimental part: (§1) For Nrf2 inhibition, NK cells were treated with 50 μM ML-385 (Sigma-Aldrich) in parallel. For H2O2 treatment, lymphocyte cells were washed and resuspended to 1×10^6 cells/mL in medium and exposed to indicated H2O2 (Sigma-Aldrich) concentration for 1 h at 37° C. Cells were washed with medium and then used for further experiments. For monocyte experiments, autologous NK cell-monocytes or TIL-monocytes were used. NK cells/TIL were isolated and pre-treated with 0.5 μg/mL AUF, as described above, and co-cultured with unstimulated at the ratio, 1:2 M:NK, or stimulated monocytes at the ratio, 1:1 M:NK, if not indicated otherwise. Stimulated monocytes were activated with 100 ng/ml PMA for 1 min, washed and added at indicated ratio, the number of NK cell/TIL was kept constant. As control, H2O2 was used at indicated concentration. Cells were co-cultured for 2 h and then effector cells were stained for intracellular ROS (see flow cytometry) or used as effector cells in Cr^51 release assay (E:T ratio 10:1).
For detection of intracellular ROS levels, for NK cells CellROX™ Deep Red Reagent (Invitrogen) were used. Briefly, NK cells were stained with 2.5 μM CellROX solution in RPMI for 30 min at 37° C. and then stained for flow cytometry with anti-CD56 and anti-CD3 (both Biolegend).

Data set [2] deals with CD8+ T cells. The data set is described as follows: IFNγ release by expanded healthy donor CD8+ T cells by pre-treatment time. In kind it is cell-based, human.
The subject of data set [3] is KADA TIL. Nature of the data set: Quantification of CD4+ T cells and Tregs in AUF pre-treated KADA TIL (flow cytometry). It counts as cell-based, human. The note with it: AUF 0.5 μg/mL. As to the method:
Tregs were defined as CD3+CD4+ FoxP3+. Directly after the treatment, TIL were stimulated for six hours with PMA/Ionomycin or autologous tumor cells and then stained for intracellular cytokines IL-10 (C) and TGFβ (D).
Lymphocytes were pre-treated for 18 h with Auranofin (AUF, with the concentration 1 μg/mL for NK cells and 0.5 μg/mL for TIL. As AUF was reconstituted in DMSO, control NK cells were pre-treated with DMSO with an equivalent volume to the highest compound concentration. For N-acetylcysteine (NAC, Invitrogen) treatment, DMSO pre-treated cells were incubated for 1 h with 5 or 10 mM NAC prior to H2O2 treatment. For H2O2 treatment, lymphocytes were washed and resuspended to 1×10^6 cells/mL in RPMI containing the indicated H2O2 (Sigma-Aldrich) concentration for 1 h at 37° C. 5% CO2. Cells were washed with medium and then used for further experiments.
All antibodies (see Table 1 in Example 1) and FACS reagents were used according to manufacturers' recommendation, if not stated otherwise. Cells were stained with LIVE/DEAD™ Fixable Aqua Dead Cell Stain Kit (Invitrogen) and then stained with the respective antibodies for 20 min at 4 °C in PBS 1% FBS. Intracellular staining was performed using Fixation/Permeabilization Kit (BD Biosciences) following the manufacturer's instructions. […]
In general terms: A flow cytometer gives signals particle by particle.

In data set [4] the test system is tumour infiltrating lymphocytes (TIL). Nature of the data set: [Cr51]-release assay: lysis of autologous tumour cells by pre-treated TIL. It counts as cell-based, human. As for the experimental part:
Melanoma patient derived TIL and CD19 directed CAR T cells were generated as previously described (Magalhaes et al., 2018; Lövgren et al., 2020).
(§2) Lymphocytes were pre-treated for 18 h with Auranofin (AUF, with the concentration 1 μg/mL for NK cells and 0.5 μg/mL for TIL, if not indicated differently), DL-Sulforaphane (SUL) or Dimethyl Fumarate (DMF) (all Sigma-Aldrich) at indicated concentrations.
as §1
For cytotoxic assay, a standard 4 h [Cr^51]-release assay was used. Briefly, tumour cells were harvested and labeled with 51Cr (PerkinElmer) and used as target cells. Effector cells, NK cells and T cells, were co-cultured in 96-well V-bottom plate with indicated tumour cells at the stated effector target ratio (E:T). The supernatant was collected onto LUMA plates (Perkin-Elmer) and radioactivity/tumour cell lysis was detected by MicroBeta2 (Perkin Elmer). Target cell killing measured by % specific lysis and calculated using the formula: ((experimental release-spontaneous release)/(maximum release-spontaneous release))*100.

Data set [5] relates to ANRU TIL. The data set is described as follows: TIL infiltration into ANRU spheroids (flow cytometry, confocal microscopy). It counts as cell-based, human. The note with it: 48 h co-culture. The source says:
To study TIL infiltration into spheroids, eight spheroids of each condition were pooled and carefully washed twice with PBS, dissociated with trypsin and then stained with anti-CD3, CD4 and anti-CD8. The supernatant was collected to measure the non-infiltrated fraction.
For confocal microscopy, spheroids were fixed with 4% PFA (Thermo Scientific). Spheroids stained with anti-CD8a followed by the secondary antibody (goat-anti-mouse IgG-AF647, Biolegend) and Hoechst 33342 dye (Invitrogen). Spheroids were cleared with 88% glycerol (Sigma) overnight, transferred to 8-well u-slides (Ibidi) and imaged with the Zeiss LSM800 confocal microscope. Spheroids were also analyzed for T cell infiltration using flow cytometry, see above.

The test system of data set [6] is cancer cells. The note with it: high doses (Stafford et al., 2018; Rigobello et al., 2008); cited from earlier work.
For data set [7], the system named is NK cells. The data set is described as follows: Viability of pre-treated NK cells after H2O2 treatment (flow cytometry). It counts as cell-based, human. The note with it: alive NK cells 4 h after H2O2 treatment, vs untreated NK cells. As to the method:
as §2
as §1, with “Cells were co-cultured for 2 h and then effector cells were stained for intracellular ROS (see flow cytometry) or used as effector cells in Cr^51 release assay (E:T ratio 10:1).” left out
All antibodies (see Table 1) and FACS reagents were used according to manufactures recommendation, if not stated otherwise. […] Samples were fixed with 2% PFA (Thermo scientific) for 15 min before acquired on a NovoCyte (ACEA Biosciences) and analysed using FlowJo Software (TreeStar).

“Also recorded” adds a separate entry of the source.

Turning to `CC(=O)OC[C@H]1O[C@@H]([S-])[C@H](OC(C)=O)[C@@H](OC(C)=O)[C@@H]1OC(C)=O.CCP(CC)CC.[Au+]` [AUF, Auranofin], in data set [1] (72 h after AUF removal), the “Intracellular fluorescence of the ROS indicator in NK cells vs controls” value is recorded as “no differences”. Besides, in data set [1] (H2O2 challenge 0-48 h after AUF removal), the “Intracellular fluorescence of the ROS indicator in NK cells” value was “significantly lower intracellular fluorescence of the ROS indicator”. In addition, in data set [1] (up to 72 h after compound removal), the “Intracellular ROS levels in NK cells and TIL after H2O2 treatment” value is “decreased intracellular ROS levels”. Besides, the “Intracellular ROS levels in NK cells” value in data set [1] (without addition of H2O2) was “significantly reduced intracellular ROS levels”. In addition, the “Pre-treatment time after which a protective effect was observed in T cells” value in data set [2] was 8 to 12 h. The “Frequency of CD4+ T cells after AUF pre-treatment” value in data set [3] is recorded as “did not observe any increase”. The “Induction of regulatory T cells (CD3+CD4+FoxP3+)” value in data set [3] (0 h or 72 h post pre-treatment) is recorded as “do not induce regulatory T cells; also recorded: no induction of regulatory T cells could be detected”. The “Lysis of autologous tumour cells by TIL after AUF removal” value in data set [4] (0-72 h after AUF removal, H2O2) is “increased lysis of autologous tumour cells”. The “Specific lysis of autologous tumour cells by TIL” value in data set [4] (KADA, also in the absence of ROS) is “clearly higher”. In data set [4] (highest AUF concentration), the “Time after AUF withdrawal until which increased lysis by TIL lasted” value came out at 72 h. The “Capacity of TIL to infiltrate the spheroid” value in data set [5] is on record as “no difference”. The “Toxicity / cell death in cancer cells” value in data set [6] is “toxic and induce cell death”. Moreover, in data set [7], the “Viability of NK cells following exposure to H2O2” value is “improved viability”.
